For test [1], the target named is T1, Neuropeptides B/W receptor type 1 (Homo sapiens, UniProt P48145).
T1 sequence (P48145 whole entry): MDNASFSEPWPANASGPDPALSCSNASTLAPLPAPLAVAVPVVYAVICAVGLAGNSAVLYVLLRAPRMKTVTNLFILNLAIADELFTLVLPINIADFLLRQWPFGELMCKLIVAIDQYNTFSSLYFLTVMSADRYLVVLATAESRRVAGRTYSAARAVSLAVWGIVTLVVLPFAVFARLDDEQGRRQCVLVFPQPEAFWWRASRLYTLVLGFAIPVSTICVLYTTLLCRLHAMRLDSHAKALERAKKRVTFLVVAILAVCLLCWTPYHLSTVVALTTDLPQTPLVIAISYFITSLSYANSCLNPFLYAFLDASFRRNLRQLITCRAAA
The test is described as follows: human NPBW1 receptor blockade, IC50 – cell-based, fluorescence, dose response, set 5, late-stage follow-up (AID 588566). The test is classed as functional.

The target in test [2] is T2, Melanin-concentrating hormone receptor 1 (Homo sapiens, UniProt Q99705). The test is described as follows: Late-stage fluorescence-based counterscreen for antagonists of the G-protein coupled receptor 7 (GPR7): cell-based dose response assay to identify antagonists of the melanin-concentrating hormone receptor 1 (MCHR1) Set 5. The format is functional. For orientation: A counterscreen serves to expose hits that act by an unwanted route or on another target.

For test [3], the target named is T3, DNA dC->dU-editing enzyme APOBEC-3A (Homo sapiens, UniProt P31941). The test is described as follows: SAR analysis of small molecule inhibitors of APOBEC3A DNA Deaminase via a fluorescence-based single-stranded DNA deaminase assay. The test is classed as functional. Particulars: read-out: IC50_Mean.
In test [4] the target is T3, DNA dC->dU-editing enzyme APOBEC-3A. The test is described as follows: SAR analysis of small molecule inhibitors of APOBEC3A DNA Deaminase via a fluorescence-based single-stranded DNA deaminase assay - Set 2. Particulars: read-out: IC50_Mean. The test is classed as functional.
For test [5], the target named is T4, DNA dC->dU-editing enzyme APOBEC-3G (Homo sapiens, UniProt Q9HC16). The test is described as follows: inhibition of APOBEC3G ssDNA deamination – biochemical, fluorescence, single-stranded DNA substrate, SAR follow-up (AID 602136). The format is functional. Particulars: read-out: IC50_Mean.
For test [6], the target named is T4, DNA dC->dU-editing enzyme APOBEC-3G. Nature of the test: SAR analysis of small molecule inhibitors of APOBEC3G DNA Deaminase via a fluorescence-based single-stranded DNA deaminase assay - Set 2. The format is functional. The conditions noted are these: read-out: IC50_Mean.
The subject of a further test is CHO-K1. Nature of the test: Counterscreen for antagonists of the orexin 1 receptor (OX1R; HCRTR1): Homogeneous time resolved fluorescence (HTRF)-based cell-based dose response assay to identify antagonists of the parental CHO-K1 cell line. [Related pubchem assays (depositor defined):AID434989, AID435008, AID463079, AID485270, AID492963, AID492964, AID492965, AID493232, AID504699, AID504701]. The test is classed as functional. The conditions noted are these: Cricetulus griseus.

The nature of test [7]: Counterscreen for antagonists of the orexin 1 receptor (OX1R; HCRTR1): Fluorescence-based cell-based high throughput dose response assay to identify antagonists of the parental CHO cell line. [Related pubchem assays (depositor defined):AID434989, AID435008, AID463079, AID485270, AID492963, AID492964, AID492965, AID493232, AID504699, AID504701]. The format is functional.
Test [8] deals with T5, Orexin/Hypocretin receptor type 1 (Homo sapiens, UniProt O43613). Nature of the test: Fluorescence-based cell-based high throughput dose response assay for antagonists of the orexin 1 receptor (OX1R; HCRTR1). [Related pubchem assays (depositor defined):AID434989, AID435008, AID463079, AID485270, AID492963, AID492964, AID492965, AID493232, AID504717, AID504718]. The format is functional.

Test [9] concerns the target T6, Zinc finger protein mex-5 (Caenorhabditis elegans, UniProt Q9XUB2).
T6 sequence (Q9XUB2 whole entry): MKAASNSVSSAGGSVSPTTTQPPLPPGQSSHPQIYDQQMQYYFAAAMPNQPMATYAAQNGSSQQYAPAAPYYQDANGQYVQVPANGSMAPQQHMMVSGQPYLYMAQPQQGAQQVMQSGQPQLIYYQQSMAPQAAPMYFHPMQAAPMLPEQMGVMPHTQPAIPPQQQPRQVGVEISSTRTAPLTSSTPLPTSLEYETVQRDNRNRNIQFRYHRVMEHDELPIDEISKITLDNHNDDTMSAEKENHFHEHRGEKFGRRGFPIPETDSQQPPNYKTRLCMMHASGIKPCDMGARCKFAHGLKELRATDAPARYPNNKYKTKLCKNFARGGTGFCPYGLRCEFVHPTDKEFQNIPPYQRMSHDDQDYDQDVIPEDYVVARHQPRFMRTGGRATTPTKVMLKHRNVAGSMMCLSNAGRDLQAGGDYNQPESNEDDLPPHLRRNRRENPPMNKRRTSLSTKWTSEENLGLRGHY
The test is described as follows: potency of MEX-5 RNA-binding blockers – biochemical, C. elegans, fluorescence polarization, dose response (AID 1960). A general note: In fluorescence polarisation assays a small probe gives low polarisation when free and higher when bound to something large.

Test [10] concerns the target T7, Orexin receptor type 2 (Homo sapiens, UniProt O43614). The test is described as follows: Counterscreen assay for antagonists of the orexin 1 receptor (OX1R; HCRTR1): Fluorescence-based cell-based dose response assay for antagonists of the orexin 2 receptor (OX2R; HCRTR2), run by assay provider. The test is classed as functional.
The target of test [11] is T7, Orexin receptor type 2. The test is described as follows: Counterscreen assay for antagonists of the orexin 1 receptor (OX1R; HCRTR1): Homogeneous Time Resolved Fluorescence (HTRF)-based cell-based dose response assay for antagonists of the orexin 2 receptor (OX2R; HCRTR2), run by assay provider. The format is functional.
The target of test [12] is T5, Orexin/Hypocretin receptor type 1. Nature of the test: Homogeneous Time Resolved Fluorescence (HTRF)-based cell-based high throughput dose response assay for antagonists of the orexin 1 receptor (OX1R; HCRTR1). [Related pubchem assays (depositor defined):AID434989, AID435008, AID463079, AID485270, AID492963, AID492964, AID492965, AID493232, AID504717, AID504718]. The test is classed as functional. (TR-FRET usually uses a lanthanide donor and a delayed reading to cut background.)

The target in test [13] is T8, RNA-binding protein pos-1 (Caenorhabditis elegans, UniProt G5EF15).
T8 sequence (G5EF15 whole entry): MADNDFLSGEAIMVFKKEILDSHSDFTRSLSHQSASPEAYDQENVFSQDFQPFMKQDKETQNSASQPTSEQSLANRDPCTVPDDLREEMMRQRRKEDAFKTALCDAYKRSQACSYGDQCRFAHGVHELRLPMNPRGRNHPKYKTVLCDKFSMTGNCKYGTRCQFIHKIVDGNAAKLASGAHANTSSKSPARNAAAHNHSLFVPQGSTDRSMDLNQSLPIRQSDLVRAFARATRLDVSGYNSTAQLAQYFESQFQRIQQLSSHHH
The test is described as follows: disruptors of C. elegans POS-1 RNA interaction – biochemical, fluorescence polarization, dose response (AID 1964).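 Note: purified POS-1 fused to maltose binding protein made in E. coli; potency of compounds blocking POS-1 binding to fluorescent RNA.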

Test [14] addresses T1, Neuropeptides B/W receptor type 1. Nature of the test: human NPBW1 receptor blockade, IC50 – cell-based, fluorescence, dose response, set 6, late-stage follow-up (AID 588583). The test is classed as functional.
For test [15], the target named is T2, Melanin-concentrating hormone receptor 1. The test is described as follows: Late-stage fluorescence-based counterscreen for antagonists of the G-protein coupled receptor 7 (GPR7): cell-based dose response assay to identify antagonists of the melanin-concentrating hormone receptor 1 (MCHR1) Set 6. The format is functional.
Test [16] has as its target T9, Apoptotic protease-activating factor 1 (Homo sapiens, UniProt O14727).
T9 sequence (O14727 whole entry): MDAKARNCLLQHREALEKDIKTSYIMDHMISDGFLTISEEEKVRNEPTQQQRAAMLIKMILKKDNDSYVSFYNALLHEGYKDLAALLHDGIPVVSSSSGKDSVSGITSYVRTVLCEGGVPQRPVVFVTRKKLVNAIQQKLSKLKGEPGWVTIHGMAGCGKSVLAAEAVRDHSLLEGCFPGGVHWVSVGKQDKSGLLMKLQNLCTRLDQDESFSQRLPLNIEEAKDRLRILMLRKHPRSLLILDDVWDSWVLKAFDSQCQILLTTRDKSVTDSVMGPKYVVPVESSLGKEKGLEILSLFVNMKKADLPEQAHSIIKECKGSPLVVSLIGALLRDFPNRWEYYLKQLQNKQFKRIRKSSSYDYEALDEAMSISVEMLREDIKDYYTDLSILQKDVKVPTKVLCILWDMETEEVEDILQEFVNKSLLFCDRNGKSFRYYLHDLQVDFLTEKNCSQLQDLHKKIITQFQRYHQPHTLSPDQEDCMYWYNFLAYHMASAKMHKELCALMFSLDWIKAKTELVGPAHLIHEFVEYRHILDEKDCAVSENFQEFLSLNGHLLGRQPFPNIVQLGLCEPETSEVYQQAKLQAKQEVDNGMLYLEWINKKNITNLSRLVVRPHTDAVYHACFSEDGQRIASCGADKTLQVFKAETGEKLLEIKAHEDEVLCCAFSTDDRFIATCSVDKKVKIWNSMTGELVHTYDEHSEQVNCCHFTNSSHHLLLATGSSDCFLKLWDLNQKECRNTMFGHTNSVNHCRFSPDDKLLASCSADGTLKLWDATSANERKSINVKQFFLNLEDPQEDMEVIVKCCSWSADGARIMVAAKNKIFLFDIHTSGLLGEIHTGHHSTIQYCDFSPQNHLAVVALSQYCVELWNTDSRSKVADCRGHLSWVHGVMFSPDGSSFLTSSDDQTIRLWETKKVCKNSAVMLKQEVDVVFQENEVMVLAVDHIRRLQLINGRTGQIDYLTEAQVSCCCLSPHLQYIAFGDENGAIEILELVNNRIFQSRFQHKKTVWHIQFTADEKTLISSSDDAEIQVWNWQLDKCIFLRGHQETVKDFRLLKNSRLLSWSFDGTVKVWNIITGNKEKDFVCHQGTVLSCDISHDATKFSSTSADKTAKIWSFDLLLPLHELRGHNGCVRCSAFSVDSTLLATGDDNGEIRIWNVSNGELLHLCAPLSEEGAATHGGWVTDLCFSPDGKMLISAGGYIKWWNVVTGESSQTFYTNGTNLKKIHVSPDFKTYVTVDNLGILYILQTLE
Nature of the test: SAR analysis of small molecule inhibitors of Apaf-1 in a Fluorescent assay. The format is functional. Particulars: read-out: IC50_Mean.

For test [17], the target named is Sphingosine 1-phosphate receptor 2 (Homo sapiens, UniProt O95136). The test is described as follows: Late-stage fluorescence-based dose-response cell-based counterscreen assay to identify agonists of the Sphingosine 1-Phosphate Receptor 3 (S1P3): Sphingosine 1-Phosphate Receptor 2 (S1P2) agonist assay. The format is functional.
Test [18] addresses T10, Sphingosine 1-phosphate receptor 4 (Homo sapiens, UniProt O95977).
T10 sequence (O95977 whole entry): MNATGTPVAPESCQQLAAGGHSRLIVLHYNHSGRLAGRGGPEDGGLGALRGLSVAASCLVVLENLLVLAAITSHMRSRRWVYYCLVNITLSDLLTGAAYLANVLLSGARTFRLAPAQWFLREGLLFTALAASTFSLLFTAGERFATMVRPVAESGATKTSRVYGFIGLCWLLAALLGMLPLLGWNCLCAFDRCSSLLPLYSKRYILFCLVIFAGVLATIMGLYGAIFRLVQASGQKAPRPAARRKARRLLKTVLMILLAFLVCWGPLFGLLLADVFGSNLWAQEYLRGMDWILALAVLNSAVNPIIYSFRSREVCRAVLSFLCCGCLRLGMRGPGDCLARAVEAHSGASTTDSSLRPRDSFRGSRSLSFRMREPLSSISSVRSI
The test is described as follows: Late-stage fluorescence-based dose-response cell-based counterscreen assay to identify agonists of the Sphingosine 1-Phosphate Receptor 3 (S1P3): Sphingosine 1-Phosphate Receptor 4 (S1P4) agonist assay. The test is classed as functional.

The target in test [19] is Glycogen synthase kinase-3 alpha (Homo sapiens, UniProt P49840). Nature of the test: GSK3A enzyme blockers, homolog specificity check – biochemical, microfluidics, dry powder samples, set 2, selectivity assay for GSK3beta inhibitor project, dose response (AID 623978). The format is functional.
The target of test [20] is Glycogen synthase kinase-3 beta (Homo sapiens, UniProt P49841). Nature of the test: inhibition of human GSK3B activity – biochemical, microfluidics, dry powder samples, set 2, dose response (AID 623989). The test is classed as functional.

The source made the active and inactive calls.

T5 sequence (O43613 whole entry): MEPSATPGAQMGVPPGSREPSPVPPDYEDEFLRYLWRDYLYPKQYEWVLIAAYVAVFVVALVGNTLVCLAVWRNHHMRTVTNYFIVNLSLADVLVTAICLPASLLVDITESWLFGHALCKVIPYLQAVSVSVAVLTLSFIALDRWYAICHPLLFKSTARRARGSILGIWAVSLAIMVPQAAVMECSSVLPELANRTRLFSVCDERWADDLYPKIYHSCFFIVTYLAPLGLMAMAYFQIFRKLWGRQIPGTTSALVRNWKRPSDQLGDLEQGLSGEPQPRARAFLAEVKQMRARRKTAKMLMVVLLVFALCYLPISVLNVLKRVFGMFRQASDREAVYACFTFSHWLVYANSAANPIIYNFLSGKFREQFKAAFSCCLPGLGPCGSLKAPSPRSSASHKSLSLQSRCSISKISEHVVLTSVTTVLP
T4 sequence (Q9HC16 whole entry): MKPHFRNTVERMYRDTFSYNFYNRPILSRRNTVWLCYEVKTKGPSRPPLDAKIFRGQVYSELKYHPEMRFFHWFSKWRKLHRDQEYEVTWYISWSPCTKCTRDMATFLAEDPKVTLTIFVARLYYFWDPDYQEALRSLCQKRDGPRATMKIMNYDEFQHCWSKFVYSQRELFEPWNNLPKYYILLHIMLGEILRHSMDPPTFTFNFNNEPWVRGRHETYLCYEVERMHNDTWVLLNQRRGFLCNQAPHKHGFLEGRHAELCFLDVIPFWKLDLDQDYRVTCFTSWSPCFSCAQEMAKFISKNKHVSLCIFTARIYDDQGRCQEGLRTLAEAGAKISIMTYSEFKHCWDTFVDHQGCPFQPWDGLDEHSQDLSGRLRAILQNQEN
T7 sequence (O43614 whole entry): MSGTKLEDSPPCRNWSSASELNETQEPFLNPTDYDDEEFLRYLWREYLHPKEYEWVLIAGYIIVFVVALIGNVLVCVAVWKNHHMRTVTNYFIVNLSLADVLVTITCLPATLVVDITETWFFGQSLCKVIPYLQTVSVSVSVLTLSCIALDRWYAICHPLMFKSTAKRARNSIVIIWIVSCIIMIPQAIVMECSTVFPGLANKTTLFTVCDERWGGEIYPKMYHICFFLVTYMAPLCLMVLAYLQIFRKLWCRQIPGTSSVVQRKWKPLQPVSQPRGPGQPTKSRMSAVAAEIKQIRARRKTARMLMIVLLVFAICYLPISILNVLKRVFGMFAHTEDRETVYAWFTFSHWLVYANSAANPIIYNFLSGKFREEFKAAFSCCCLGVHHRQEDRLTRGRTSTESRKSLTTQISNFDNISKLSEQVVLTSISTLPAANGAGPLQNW
T3 sequence (P31941 whole entry): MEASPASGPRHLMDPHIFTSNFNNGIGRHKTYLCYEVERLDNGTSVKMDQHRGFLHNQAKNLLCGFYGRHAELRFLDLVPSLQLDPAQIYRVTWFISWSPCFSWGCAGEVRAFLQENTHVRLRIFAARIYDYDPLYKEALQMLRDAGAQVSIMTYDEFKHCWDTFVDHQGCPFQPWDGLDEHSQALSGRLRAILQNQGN
T2 sequence (Q99705 whole entry): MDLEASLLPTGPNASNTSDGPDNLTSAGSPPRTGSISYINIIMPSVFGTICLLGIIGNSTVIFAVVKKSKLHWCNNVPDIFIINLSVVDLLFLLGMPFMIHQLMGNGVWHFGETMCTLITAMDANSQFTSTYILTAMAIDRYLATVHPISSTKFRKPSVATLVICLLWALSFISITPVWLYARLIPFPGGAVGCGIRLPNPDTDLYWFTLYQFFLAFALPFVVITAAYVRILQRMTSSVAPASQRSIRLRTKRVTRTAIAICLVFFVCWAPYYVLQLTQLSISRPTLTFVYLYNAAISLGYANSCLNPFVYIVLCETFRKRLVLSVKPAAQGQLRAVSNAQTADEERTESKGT
Sequence of Sphingosine 1-phosphate receptor 2 (O95136 whole entry): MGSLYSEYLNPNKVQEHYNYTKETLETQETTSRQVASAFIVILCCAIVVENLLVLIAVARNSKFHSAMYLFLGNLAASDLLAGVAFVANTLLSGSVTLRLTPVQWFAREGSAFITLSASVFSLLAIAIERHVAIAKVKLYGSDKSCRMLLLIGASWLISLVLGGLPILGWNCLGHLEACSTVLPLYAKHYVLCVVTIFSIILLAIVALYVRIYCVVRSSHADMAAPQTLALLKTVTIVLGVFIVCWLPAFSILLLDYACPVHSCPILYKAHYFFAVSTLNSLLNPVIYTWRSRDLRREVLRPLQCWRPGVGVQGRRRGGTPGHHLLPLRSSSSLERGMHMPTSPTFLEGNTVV
Sequence of Glycogen synthase kinase-3 beta (P49841 whole entry): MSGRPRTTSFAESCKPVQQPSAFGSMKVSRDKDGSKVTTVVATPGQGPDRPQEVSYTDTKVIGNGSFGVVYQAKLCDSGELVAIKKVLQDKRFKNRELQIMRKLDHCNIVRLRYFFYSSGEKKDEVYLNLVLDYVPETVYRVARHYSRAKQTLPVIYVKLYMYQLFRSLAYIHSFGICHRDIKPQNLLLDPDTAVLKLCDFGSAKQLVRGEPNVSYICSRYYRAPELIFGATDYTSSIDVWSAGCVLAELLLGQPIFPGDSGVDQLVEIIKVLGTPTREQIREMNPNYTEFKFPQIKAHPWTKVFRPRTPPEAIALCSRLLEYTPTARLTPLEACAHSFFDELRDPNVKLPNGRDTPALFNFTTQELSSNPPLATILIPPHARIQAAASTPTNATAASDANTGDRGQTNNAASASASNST
Sequence of Glycogen synthase kinase-3 alpha (P49840 whole entry): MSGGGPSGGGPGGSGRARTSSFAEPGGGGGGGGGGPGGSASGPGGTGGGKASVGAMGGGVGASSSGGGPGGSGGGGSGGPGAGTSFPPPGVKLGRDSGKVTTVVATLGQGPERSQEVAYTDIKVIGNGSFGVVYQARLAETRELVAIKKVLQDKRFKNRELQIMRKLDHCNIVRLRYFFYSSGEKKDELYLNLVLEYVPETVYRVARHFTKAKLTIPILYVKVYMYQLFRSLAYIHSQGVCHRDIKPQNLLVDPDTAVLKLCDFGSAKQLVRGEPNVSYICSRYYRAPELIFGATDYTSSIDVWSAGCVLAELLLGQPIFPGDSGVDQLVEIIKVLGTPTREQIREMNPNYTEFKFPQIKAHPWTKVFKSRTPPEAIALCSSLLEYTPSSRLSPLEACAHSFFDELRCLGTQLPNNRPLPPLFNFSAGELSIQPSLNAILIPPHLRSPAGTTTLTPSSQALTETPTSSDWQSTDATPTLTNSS

Turning to `COc1ccc(Oc2c(Cl)cnn(Cc3ccccc3OCc3ccccc3)c2=O)cc1`, the results for the IC50 in test [1] and in test [2] were 1.21 µM (active) and 16.5 µM (inactive), respectively.
As to `CC1(C)Oc2ccc3ccc(=O)oc3c2C(C=NCCO)=C1O`, the IC50 in test [3] was 28.8 µM (inactive); in test [4] it was 50.4 µM (inactive); in test [5] it was 12.3 µM (inactive); in [6], 2.34 µM (active).
As usually defined, the EC50 is the concentration giving half of the maximal effect. For the compound `Nc1c(C(=O)c2ccc(Br)s2)oc2ccccc12`, the IC50 was > 66.2 µM (inactive) in the test on CHO-K1; > 49.8 µM (inactive) in test [7]; 15.7 µM (inactive) in test [8]; 30.7 µM (inactive) on Orexin receptor type 2 [10]; > 50 µM (inactive) on Orexin receptor type 2 [11]; 6.69 µM (active) in test [12]. Moreover, the concentration giving a half-maximal response (EC50) in [9] was 106 µM (active); in [13], 71.8 µM (active).
Turning to `N#CC(c1cccc(F)c1F)c1c(Cl)cnn(Cc2cccc3ccccc23)c1=O` (configuration not stated), the IC50 in [14] and in [15] was 0.542 µM (active) in each case.
`Cc1ccc2c(c1)C(=O)c1nc3ccccc3c(=O)n1-2`: the IC50 in test [16] was > 100 µM (inactive).
Take `CC1CCCCC1N(C(=O)c1cc(C2CC2)on1)C1CCOCC1` (configuration not stated): the EC50 in test [17] and in test [18] was > 50 µM (inactive) throughout.
By AC50 is commonly meant the concentration giving half of the maximal activity seen. Consider `Fc1cccc(Nc2nc(-c3ccncc3)nc3ccccc23)c1`, for which the AC50 was 29.7 µM (active) in test [19] and 0.894 µM (active) in test [20]. Besides, the IC50 in the test “cells” is 44.3 µM (active).

The values are drawn from ChEMBL document CHEMBL1201862, “PubChem BioAssay data set” (2004).
